According to ChEMBL document CHEMBL4376865, “Discovery and Characterization of 1H-1,2,3-Triazole Derivatives as Novel Prostanoid EP4 Receptor Antagonists for Cancer Immunotherapy” (J Med Chem, 2020):

Key:
[1] = biological target: Prostaglandin E2 receptor EP4 subtype (Mus musculus, UniProt P32240); assay: Antagonist activity at mouse EP4 expressed in CHO cells coexpressing G16-alpha assessed as intracellular calcium flux preincubated for 15 mins followed by addition of PGE2 by calcium flux assay; format: functional, cell-based
Prostaglandin E2 receptor EP4 subtype (Mus musculus, UniProt P32240), sequence (P32240 whole entry): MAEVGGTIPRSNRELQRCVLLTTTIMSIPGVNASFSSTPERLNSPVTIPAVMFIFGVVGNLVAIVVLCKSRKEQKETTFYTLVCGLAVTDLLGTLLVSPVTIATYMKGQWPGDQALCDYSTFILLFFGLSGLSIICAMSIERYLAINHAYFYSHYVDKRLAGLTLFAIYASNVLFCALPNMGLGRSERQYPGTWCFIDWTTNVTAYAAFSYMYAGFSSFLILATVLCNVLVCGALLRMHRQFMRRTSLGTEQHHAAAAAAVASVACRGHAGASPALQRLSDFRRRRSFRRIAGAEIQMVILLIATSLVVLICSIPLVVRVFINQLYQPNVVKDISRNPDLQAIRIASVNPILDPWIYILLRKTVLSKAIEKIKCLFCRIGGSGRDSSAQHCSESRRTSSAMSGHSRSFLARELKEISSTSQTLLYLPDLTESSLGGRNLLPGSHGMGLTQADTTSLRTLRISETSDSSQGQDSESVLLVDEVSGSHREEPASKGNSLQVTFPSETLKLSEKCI

[2] = biological target: T1, Prostaglandin E2 receptor EP1 subtype (Homo sapiens, UniProt P34995); assay: Antagonist activity at human EP1 expressed in CHO cells coexpressing G16-alpha assessed as intracellular calcium flux preincubated for 15 mins followed by addition of PGE2 by calcium flux assay; format: functional, cell-based
T1 sequence (P34995 whole entry): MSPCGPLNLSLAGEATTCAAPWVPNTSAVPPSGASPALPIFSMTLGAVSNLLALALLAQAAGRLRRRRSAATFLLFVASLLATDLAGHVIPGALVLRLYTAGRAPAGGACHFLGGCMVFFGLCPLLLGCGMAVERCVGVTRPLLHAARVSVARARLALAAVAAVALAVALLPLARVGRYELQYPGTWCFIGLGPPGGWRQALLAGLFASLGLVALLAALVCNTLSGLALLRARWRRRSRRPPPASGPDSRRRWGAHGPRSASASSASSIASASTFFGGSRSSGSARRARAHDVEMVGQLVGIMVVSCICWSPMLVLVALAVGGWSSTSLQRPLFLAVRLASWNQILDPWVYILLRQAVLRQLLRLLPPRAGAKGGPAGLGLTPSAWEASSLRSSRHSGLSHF

[3] = biological target: Prostaglandin E2 receptor EP2 subtype (Homo sapiens, UniProt P43116)
Prostaglandin E2 receptor EP2 subtype, sequence (P43116 whole entry): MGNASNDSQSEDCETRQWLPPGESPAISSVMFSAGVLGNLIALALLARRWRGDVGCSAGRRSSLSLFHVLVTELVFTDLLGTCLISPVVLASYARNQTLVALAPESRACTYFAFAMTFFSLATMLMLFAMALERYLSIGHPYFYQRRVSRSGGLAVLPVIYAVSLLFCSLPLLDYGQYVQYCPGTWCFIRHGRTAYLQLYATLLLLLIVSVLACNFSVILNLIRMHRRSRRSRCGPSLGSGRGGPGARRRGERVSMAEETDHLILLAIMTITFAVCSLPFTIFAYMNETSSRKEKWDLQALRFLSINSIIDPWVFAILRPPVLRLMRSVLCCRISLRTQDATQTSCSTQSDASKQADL
Description: Antagonist activity at human EP2 expressed in CHO cells coexpressing G16-alpha assessed as intracellular calcium flux preincubated for 15 mins followed by addition of PGE2 by calcium flux assay

[4] = biological target: T2, Prostaglandin E2 receptor EP3 subtype (Homo sapiens, UniProt P43115)
T2 sequence (P43115 whole entry): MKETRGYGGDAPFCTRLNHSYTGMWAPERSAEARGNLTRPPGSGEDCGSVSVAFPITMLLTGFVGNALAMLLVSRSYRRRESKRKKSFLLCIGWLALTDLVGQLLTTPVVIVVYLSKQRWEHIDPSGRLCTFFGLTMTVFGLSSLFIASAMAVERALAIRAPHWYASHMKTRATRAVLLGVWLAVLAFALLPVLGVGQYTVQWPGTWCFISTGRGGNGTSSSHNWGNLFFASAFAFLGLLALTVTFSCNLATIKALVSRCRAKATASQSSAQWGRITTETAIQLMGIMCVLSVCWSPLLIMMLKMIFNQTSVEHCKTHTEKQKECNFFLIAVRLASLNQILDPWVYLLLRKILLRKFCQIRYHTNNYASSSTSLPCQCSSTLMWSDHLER
Description: Antagonist activity at human EP3 expressed in CHO cells coexpressing G16-alpha assessed as intracellular calcium flux preincubated for 15 mins followed by addition of PGE2 by calcium flux assay

[5] = Metabolic stability in human liver microsomes assessed as compound remaining at 10 uM incubated for 1 hr
[6] = biological target: Prostaglandin E2 receptor EP4 subtype (Homo sapiens, UniProt P35408)
Prostaglandin E2 receptor EP4 subtype (Homo sapiens, UniProt P35408), sequence (P35408 whole entry): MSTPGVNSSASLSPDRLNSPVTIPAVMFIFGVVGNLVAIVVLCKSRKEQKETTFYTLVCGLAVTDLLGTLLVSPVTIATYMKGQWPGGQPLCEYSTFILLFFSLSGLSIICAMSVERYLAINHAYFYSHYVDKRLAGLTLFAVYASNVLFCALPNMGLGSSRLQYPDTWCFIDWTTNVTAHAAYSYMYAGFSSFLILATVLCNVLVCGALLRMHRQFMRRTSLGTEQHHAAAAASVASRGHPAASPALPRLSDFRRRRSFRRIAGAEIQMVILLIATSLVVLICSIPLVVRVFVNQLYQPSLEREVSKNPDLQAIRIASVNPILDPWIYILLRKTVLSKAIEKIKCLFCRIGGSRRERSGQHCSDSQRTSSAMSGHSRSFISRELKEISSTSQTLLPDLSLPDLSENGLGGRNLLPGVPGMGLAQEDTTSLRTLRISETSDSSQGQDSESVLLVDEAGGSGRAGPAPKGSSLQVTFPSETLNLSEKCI
Description: Antagonist activity at human EP4 expressed in CHO cells coexpressing G16-alpha assessed as intracellular calcium flux preincubated for 15 mins followed by addition of PGE2 by calcium flux assay

in vitro [7] = conditions: human, liver microsomes
in vitro [8] = conditions: human, liver microsomes; remark: listed apart in the source
CYP2E1 = CYP2E1 (Homo sapiens, UniProt P05181); assay: Inhibition of CYP2E1 in human liver microsomes at 20 uM using chlorzoxazone as substrate incubated for 60 mins by HPLC analysis relative to control; format: ADME; conditions: probe chlorzoxazone
CYP2E1, sequence (P05181 whole entry): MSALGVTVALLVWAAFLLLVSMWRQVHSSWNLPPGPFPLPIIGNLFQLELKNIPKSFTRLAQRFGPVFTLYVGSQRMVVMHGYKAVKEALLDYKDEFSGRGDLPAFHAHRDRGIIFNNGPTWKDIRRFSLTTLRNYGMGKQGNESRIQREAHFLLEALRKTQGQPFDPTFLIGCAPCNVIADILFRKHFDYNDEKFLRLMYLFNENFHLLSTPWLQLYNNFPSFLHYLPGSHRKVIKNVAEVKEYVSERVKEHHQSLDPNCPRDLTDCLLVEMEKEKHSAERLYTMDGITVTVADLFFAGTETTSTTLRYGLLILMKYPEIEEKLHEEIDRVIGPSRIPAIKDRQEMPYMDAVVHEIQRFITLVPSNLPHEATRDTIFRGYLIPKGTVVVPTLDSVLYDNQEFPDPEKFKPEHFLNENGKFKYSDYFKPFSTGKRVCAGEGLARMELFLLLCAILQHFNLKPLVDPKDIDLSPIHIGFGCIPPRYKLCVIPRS

CYP2D6 = CYP2D6 (Homo sapiens, UniProt P10635); assay: Inhibition of CYP2D6 in human liver microsomes at 20 uM using dextromethorphan as substrate incubated for 60 mins by HPLC analysis relative to control; format: ADME; conditions: probe dextromethorphan
CYP2D6, sequence (P10635 whole entry): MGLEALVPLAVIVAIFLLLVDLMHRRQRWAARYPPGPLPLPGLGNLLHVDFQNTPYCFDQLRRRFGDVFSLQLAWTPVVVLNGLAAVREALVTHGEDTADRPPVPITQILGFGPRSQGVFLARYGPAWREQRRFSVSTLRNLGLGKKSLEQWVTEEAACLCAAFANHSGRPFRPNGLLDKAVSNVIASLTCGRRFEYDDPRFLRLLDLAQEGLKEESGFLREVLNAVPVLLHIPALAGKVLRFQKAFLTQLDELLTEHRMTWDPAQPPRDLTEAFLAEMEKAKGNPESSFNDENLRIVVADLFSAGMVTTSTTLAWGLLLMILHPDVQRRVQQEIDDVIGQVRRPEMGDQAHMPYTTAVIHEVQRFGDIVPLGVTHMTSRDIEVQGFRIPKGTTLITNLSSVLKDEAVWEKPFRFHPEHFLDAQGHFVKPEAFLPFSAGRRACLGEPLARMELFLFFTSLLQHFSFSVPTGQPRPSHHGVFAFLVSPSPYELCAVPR

CYP1A2 = biological target: T3, CYP1A2 (Homo sapiens, UniProt P05177); assay: Inhibition of CYP1A2 in human liver microsomes at 20 uM using phenacetin as substrate incubated for 30 mins by HPLC analysis relative to control; format: ADME; conditions: probe phenacetin
T3 sequence (P05177 whole entry): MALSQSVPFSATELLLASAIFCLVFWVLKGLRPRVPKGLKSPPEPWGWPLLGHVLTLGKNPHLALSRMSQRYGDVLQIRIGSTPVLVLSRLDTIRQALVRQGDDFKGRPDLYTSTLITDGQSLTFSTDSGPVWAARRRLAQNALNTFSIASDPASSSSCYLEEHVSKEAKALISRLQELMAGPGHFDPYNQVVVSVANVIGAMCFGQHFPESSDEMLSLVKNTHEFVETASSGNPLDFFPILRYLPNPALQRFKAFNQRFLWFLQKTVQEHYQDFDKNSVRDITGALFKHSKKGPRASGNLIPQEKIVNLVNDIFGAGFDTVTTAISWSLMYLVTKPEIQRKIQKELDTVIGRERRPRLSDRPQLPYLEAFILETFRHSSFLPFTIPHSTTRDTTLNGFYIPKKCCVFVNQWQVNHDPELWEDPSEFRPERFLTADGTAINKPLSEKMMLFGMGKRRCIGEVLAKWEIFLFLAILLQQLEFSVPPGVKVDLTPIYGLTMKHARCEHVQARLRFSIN

CYP2B6 = biological target: T4, CYP2B6 (Homo sapiens, UniProt P20813); assay: Inhibition of CYP2B6 in human liver microsomes at 20 uM incubated for 60 mins by HPLC analysis relative to control; format: ADME
T4 sequence (P20813 whole entry): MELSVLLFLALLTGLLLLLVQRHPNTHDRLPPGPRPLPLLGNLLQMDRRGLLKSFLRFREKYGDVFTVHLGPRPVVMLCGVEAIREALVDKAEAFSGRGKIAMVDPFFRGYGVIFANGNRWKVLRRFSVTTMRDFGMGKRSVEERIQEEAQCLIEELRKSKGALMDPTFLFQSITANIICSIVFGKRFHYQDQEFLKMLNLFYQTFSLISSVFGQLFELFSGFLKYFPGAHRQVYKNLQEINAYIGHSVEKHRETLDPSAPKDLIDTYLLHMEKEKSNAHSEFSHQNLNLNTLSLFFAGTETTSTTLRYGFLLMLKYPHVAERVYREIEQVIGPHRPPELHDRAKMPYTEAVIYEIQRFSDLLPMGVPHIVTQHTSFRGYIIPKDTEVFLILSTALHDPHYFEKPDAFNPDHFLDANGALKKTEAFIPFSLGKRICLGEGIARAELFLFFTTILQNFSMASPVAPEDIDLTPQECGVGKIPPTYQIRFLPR

CYP2C9 = CYP2C9 (Homo sapiens, UniProt P11712); assay: Inhibition of CYP2C9 in human liver microsomes at 20 uM using tolbutamide as substrate incubated for 60 mins by HPLC analysis relative to control; format: ADME; conditions: probe tolbutamide
CYP2C9, sequence (P11712 whole entry): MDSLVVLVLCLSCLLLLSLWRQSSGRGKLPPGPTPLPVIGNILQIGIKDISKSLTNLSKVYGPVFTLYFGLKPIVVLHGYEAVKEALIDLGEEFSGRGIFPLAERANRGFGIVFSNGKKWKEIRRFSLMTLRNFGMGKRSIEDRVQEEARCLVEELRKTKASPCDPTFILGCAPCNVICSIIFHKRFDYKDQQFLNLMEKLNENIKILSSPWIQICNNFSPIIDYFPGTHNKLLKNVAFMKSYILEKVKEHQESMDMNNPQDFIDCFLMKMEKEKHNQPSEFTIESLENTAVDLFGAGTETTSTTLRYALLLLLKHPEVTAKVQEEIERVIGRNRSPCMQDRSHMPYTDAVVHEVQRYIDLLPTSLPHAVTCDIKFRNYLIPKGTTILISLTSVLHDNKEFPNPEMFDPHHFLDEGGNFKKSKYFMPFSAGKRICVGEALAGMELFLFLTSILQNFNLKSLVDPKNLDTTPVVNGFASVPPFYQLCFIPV

Cytochrome P450 3A4 = Cytochrome P450 3A4 (Homo sapiens, UniProt P08684); assay: Inhibition of CYP3A4 in human liver microsomes at 20 uM using testosterone as substrate incubated for 60 mins by HPLC analysis; format: ADME; conditions: 1 h
Cytochrome P450 3A4, sequence (P08684 whole entry): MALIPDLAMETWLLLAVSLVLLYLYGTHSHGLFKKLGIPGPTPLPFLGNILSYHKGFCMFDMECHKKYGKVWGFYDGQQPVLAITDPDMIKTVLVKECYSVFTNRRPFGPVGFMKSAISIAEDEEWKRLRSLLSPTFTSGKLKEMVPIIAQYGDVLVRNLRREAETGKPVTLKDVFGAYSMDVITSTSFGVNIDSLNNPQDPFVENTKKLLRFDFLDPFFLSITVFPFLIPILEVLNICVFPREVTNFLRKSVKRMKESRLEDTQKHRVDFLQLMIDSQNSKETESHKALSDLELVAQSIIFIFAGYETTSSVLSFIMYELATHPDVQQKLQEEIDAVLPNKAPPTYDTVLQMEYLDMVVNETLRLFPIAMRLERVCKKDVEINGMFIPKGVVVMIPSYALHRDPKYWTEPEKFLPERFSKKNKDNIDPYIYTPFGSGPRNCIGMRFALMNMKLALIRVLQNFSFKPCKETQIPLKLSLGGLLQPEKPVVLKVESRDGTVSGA

SMILES	IC50 [1] [nM]	IC50 [2] [µM]	IC50 [3] [µM]	IC50 [4] [µM]	IC50 [6] [nM]	further results
C[C@H](NC(=O)c1c(-c2ccccc2)nnn1CCOc1ccc(F)cc1)c1ccc(C(=O)O)cc1	132	> 10	> 10	> 10	–	–
C[C@H](NC(=O)c1c(-c2ccoc2)nnn1Cc1ccc(C(F)(F)F)cc1)c1ccc(C(=O)O)cc1	57.6	> 10	> 10	> 10	45.6	remaining at 1 h, 10 µM [5]: 87.9%; half-life at 1 h, 10 µM (in vitro [7]): > 145 min; microsomal CLint at 1 h, 10 µM (in vitro [8]): < 9.6 µL/min/mg
C/C=C/c1nnn(Cc2ccc(C(F)(F)F)cc2)c1C(=O)N[C@H](C)c1ccc(C(=O)O)cc1	–	–	–	–	> 1000	–
C[C@H](NC(=O)c1c(-c2ccccc2)nnn1Cc1ccc(F)cc1)c1ccc(C(=O)O)cc1	–	–	–	–	330	–
C[C@H](NC(=O)c1c(C(F)(F)F)nnn1Cc1ccc(C(F)(F)F)cc1)c1ccc(C(=O)O)cc1	–	–	–	–	225	–
C[C@H](NC(=O)c1c(C2=CCCC2)nnn1Cc1ccc(C(F)(F)F)cc1)c1ccc(C(=O)O)cc1	400	> 10	> 10	> 10	–	–
COc1cccc(Cn2nnc(-c3ccccc3)c2C(=O)N[C@@H](C)c2ccc(C(=O)O)cc2)c1	–	–	–	–	96.8	–
C/C=C/c1nnn(Cc2ccc(C(F)(F)F)cc2)c1C(=O)NCc1ccc(C(=O)O)cc1	130	–	–	–	10.5	–
C[C@H](NC(=O)c1c(C(F)(F)F)nnn1CCc1ccc(F)cc1)c1ccc(C(=O)O)cc1	–	–	–	–	> 10000	–
C[C@H](NC(=O)c1c(-c2ccccc2)nnn1CCOc1cccc(C(F)(F)F)c1)c1ccc(C(=O)O)cc1	135	> 10	> 10	> 10	–	inhibition at 1 h, 20 µM (CYP2E1): 67%; inhibition at 1 h, 20 µM (CYP2D6): 30%; inhibition at 0.5 h, 20 µM (CYP1A2): 30%; inhibition at 1 h, 20 µM (CYP2B6): 51%; inhibition at 1 h, 20 µM (CYP2C9): 67%; inhibition (INH) (Cytochrome P450 3A4): Not Active
C[C@H](NC(=O)c1nnn(Cc2cccc(C(F)(F)F)c2)c1C(F)(F)F)c1ccc(C(=O)O)cc1	–	–	–	–	> 10000	–
COc1ccc(Cn2nnc(-c3ccccc3)c2C(=O)N[C@@H](C)c2ccc(C(=O)O)cc2)cc1	–	–	–	–	9.3	–
C[C@H](NC(=O)c1c(-c2ccccc2)nnn1Cc1ccc(C(F)(F)F)cc1)c1ccc(C(=O)O)cc1	906	> 10	> 10	> 10	8.5	remaining at 1 h, 10 µM [5]: 84.9%; half-life at 1 h, 10 µM (in vitro [7]): > 145 min; microsomal CLint at 1 h, 10 µM (in vitro [8]): < 9.6 µL/min/mg
CCCc1c(C(=O)N[C@@H](C)c2ccc(C(=O)O)cc2)nnn1Cc1ccc(C(F)(F)F)cc1	–	–	–	–	> 10000	–
Cc1nnn(Cc2ccc(C(F)(F)F)cc2)c1C(=O)N[C@@H](C)c1ccc(C(=O)O)cc1	–	–	–	–	> 10000	–
C[C@H](NC(=O)c1cnnn1Cc1ccc(C(F)(F)F)cc1)c1ccc(C(=O)O)cc1	–	–	–	–	> 10000	–
